Results taken from US12709596B2, “Molecules” (ENA Respiratory Pty Ltd, priority 2019, dated 2026).

Assays:
human TLR2 (hTLR2) = target: T1, human TLR2 (hTLR2) (Homo sapiens, UniProt O60603); assay: HEK-BLUE-hTLR2 cell assay (NF-kB induced SEAP, read at 620 nm); format: cell-based; details: HEK-BLUE-hTLR2 cells, 16 hr
T1 construct: host or cells: HEK293 (HEK-BLUE-hTLR2)
Procedure: The potency of the compounds as activators of human TLR-2s is tested in an in vitro assay in HEK-BLUE-hTLR2 cells.
HEK-BLUE-hTLR2 cells are designed for studying the stimulation of human TLR2 (hTLR2) by monitoring the activation of NF-kB. HEK-BLUE-hTLR2 cells are obtained by co-transfection of the hTLR2 and SEAP (secreted embryonic alkaline phosphatase) reporter genes into HEK293 cells. Stimulation with a TLR2 ligand activates NF-kB which induces the production of SEAP.
HEK-BLUE-hTLR2 cells were purchased from InvivoGen (San Diego, CA, USA). Cells were grown in DMEM supplemented with 10% FCS, 100 U/ml penicillin, 100 ug/ml streptomycin and 2 mM L-glutamine, 100 μg/mL Normocin in the presence of selection antibiotic purchased from InvivoGen and passaged when 70% confluence was reached per manufacturer's recommendation. […]

[1] = Stability II: 9 day stability under accelerated conditions in EDTA/saline pH 5 by HPLC; format: physicochemical; details: 40° C./75% RH, 9 days
Procedure: Stability was measured using reversed phase HPLC with a UV detector analytical wavelength of 205 nm. Peak areas of each compound at the 9 day time point were compared with areas at time zero. Compound stability at day 9 was calculated as a percentage of the time zero peak area data. Compound stability was further assessed by comparison with a reference sample of the same compound. […] Thawed samples were sonicated and measured by HPLC.

T1 sequence (O60603 21-784): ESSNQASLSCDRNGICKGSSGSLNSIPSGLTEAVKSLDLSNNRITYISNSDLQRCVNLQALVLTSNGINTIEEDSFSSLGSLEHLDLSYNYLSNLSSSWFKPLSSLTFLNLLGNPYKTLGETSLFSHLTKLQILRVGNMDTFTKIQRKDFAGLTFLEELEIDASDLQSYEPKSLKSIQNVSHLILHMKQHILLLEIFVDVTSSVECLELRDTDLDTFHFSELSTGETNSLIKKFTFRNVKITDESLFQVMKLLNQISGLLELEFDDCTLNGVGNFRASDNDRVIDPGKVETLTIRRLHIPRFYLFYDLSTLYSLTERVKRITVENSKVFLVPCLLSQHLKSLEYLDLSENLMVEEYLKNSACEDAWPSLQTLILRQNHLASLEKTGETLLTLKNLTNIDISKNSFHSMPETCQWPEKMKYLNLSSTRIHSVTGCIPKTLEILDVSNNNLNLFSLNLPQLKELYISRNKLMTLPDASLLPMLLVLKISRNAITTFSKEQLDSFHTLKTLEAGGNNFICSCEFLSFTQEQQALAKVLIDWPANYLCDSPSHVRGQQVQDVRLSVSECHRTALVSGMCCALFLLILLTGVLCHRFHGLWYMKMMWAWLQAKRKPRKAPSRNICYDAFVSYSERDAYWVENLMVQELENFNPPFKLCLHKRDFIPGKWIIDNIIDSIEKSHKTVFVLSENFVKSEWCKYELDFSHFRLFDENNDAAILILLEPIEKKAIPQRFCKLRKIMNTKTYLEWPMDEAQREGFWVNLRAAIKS
T1 sequence (Q9Y2C9 32-796 partner): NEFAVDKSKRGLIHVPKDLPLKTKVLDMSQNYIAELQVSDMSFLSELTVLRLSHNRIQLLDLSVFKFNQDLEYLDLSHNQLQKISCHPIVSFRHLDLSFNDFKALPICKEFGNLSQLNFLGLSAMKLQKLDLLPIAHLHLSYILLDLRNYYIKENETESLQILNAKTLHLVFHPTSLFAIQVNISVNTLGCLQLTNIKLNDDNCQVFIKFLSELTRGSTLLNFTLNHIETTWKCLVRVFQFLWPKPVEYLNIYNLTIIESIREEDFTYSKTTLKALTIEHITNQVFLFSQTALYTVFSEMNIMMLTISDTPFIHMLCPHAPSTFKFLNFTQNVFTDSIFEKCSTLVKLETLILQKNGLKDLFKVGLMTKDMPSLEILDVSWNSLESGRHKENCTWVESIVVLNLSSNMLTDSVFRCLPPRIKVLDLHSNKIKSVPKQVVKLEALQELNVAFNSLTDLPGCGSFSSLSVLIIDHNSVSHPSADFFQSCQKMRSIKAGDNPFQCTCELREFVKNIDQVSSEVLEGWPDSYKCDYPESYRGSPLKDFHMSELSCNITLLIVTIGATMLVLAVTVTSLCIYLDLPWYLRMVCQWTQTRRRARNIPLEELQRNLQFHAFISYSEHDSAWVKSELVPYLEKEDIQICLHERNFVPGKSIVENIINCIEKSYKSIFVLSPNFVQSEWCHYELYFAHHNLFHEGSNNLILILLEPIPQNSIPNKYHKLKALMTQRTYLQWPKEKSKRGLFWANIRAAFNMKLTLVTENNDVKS

- TLR2 activity (HEK-BLUE-hTLR2 assay, FIG. 4) (human TLR2 (hTLR2)): significant activity at TLR2
- stability over the 9 day test period ([1]; pH 5 EDTA/saline): substantial stability
- stability under the accelerated conditions relative to comparator compound ([1]; versus compound (8) of WO2019/119067): superior stability
SMILES: CCCCCCCCCCCCCCC(C)C(=O)OCC[C@H](CSC[C@H](N)C(=O)N[C@@H](CO)C(=O)NCCOCCOCCOCCOCCOCCOCCOCCOCCOCCOCCOCCOCCOCCOCCOCCOCCOCCOCCOCCOCCOCCOCCOCCOCCOCCOCCOCCOCCC(=O)NCC(N)=O)OC(=O)C(C)CCCCCCCCCCCCCC (stereo partly drawn) [Compound 36]
